Here are results for one compound from patent US10183062B2, “Treatment for cancer” (The University of Nottingham, priority 2013, dated 2019).

The Km is the substrate concentration at which the rate is half of its maximum.

In data set [1] the target is NmeNTR, Neisseria meningitidis MC58 nitroreductase (NfnB homolog, Q9K022), wild type, SEQ ID NO: 1 (Neisseria meningitidis, UniProt Q9K022). Put plainly: CB1954 nitroreductase activity, HPLC, purified His-tagged NmeNTR. The class given is biochemical. To be noted: CB1954, cofactor NADH; 37° C., pH 7.0. From the text: Genes encoding homologs of E. coli NfnB and Bacillus amyloliquefaciens YwrO from several bacteria were cloned into an E. coli expression vector for screening (see Methods below). These were the NfnB homolog from Neisseria meningitidis MC58 (‘NmeNTR’, accession number Q9K022), the NfnB homolog from Haemophilus somnus 129PT (‘HsoNTR’, accession number ZP_00122352.1), the NfnB homolog from Burkholderia fungorum LB400 (‘BfuNTR’, accession number ZP_00029570.1), the YwrO homolog from Vibrio cholerae (‘VchYwrO’, accession number Q9KNX3), the YwrO homolog from Rhodobacter sphaeroides (‘RspYwrO’, accession number ZP_00007082.1), and two YwrO homologs from Pseudomonas aeruginosa (‘PaeYwrO1’, accession number Q9HUJ0; and ‘PaeYwrO2’, accession number Q9I4B3).
Chain of NmeNTR, Neisseria meningitidis MC58 nitroreductase (NfnB homolog, Q9K022), wild type, SEQ ID NO: 1 (Q9K022 entry or part of it): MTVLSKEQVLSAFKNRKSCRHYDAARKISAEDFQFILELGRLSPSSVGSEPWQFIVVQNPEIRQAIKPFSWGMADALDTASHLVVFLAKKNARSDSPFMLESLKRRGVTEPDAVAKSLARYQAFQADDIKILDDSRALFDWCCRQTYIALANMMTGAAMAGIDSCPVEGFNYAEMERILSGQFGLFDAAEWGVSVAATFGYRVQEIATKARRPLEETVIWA
For determination of CB1954 nitroreductase kinetic parameters, six-histidine affinity-tagged enzymes were purified from cell lysates purified using a Novagen His-Bind kit in accordance with the manufacturer's instructions.
CB1954 nitroreductase activity was determined essentially as described by Anlezark (6). Reaction mixtures containing 500 μM NADH or NADPH and a small quantity of enzyme (either crude lysate or purified enzyme) were assembled in pre-warmed (to 37° C.) 100 mM sodium phosphate buffer (pH 7.0), and started with the addition of 100 μM CB1954 and prompt mixing.
To determine initial reaction rates during preliminary screening of CB1954 nitroreductase candidates, aliquots of the reaction mixtures taken at various times were injected into a Partisphere SCX (100×4.7 mm) HPLC column and eluted isocratically at 2 ml/min with 130 mM NaH2PO4 (pH 5.0). Eluates were continuously monitored at 260 nm and 325 nm, and the absorbance spectra of eluting components recorded using a photodiode array detector. Peaks were identified with reference to standards and/or by their known absorbance spectra (7) and anticipated column retention times as appropriate. Rates were determined based on the decrease in the area under the CB1954 peak over time, normalised to the known starting concentration of 100 μM using the peak from the zero timepoint sample.
To determine initial reaction rates and CB1954 nitroreduction products in later experiments with purified proteins, peaks were identified as before, and rates were determined based on the increase in the area under the 4-hydroxylamine derivative peak over time, normalised using enzymatically-synthesised 4-hydroxylamine standards.
NmeNTR and HsoNTR were each affinity-tagged, over-expressed, purified, and the CB1954 nitroreductase activities of the purified proteins characterized using the HPLC assay. The reaction products and kinetic parameters of these enzymes with respect to CB1954 and NADH were determined (Table 1). […] Moreover, the kinetic parameters of HsoNTR and NmeNTR differ dramatically from those of E. coli NfnB and other published enzymes (Table 1). […] NmeNTR would therefore approach saturation with CB1954 in a therapeutic regime using the maximum clinically-recommended dose, so the prodrug would be efficiently activated and high levels of tumour-specific cytotoxicity achieved.

The conditions of data set [2]: cited from earlier work.
In another data set the test system is HCT116 tumours. Put plainly: Mouse xenograft tumour growth delay (CDEPT). The class given is in vivo, NMRI nu/nu mice. The following applies: prodrug alone, 15 mg/kg i.p., 5 consecutive days. The protocol:
Human colorectal HCT116 carcinoma cells were grown in DMEM medium supplemented with 10% FBS, trypsinized and injected subcutaneously in 100 μl PBS/ . . . % matrigel at a concentration of 5.10^6 cells in the abdominal flank of adult NMRI nu/nu mice. As soon as tumours were palpable, tumour volumes were determined three times per week by measuring three orthogonal diameters using calipers. Volumes were calculated according to the formula V=A×B×C×/6. All experiments were conducted in accordance with local institutional guidelines of the University of Leuven, approved by the animal ethics committee and procedures were according to the guidelines defined by the UKCCCR (12). […] Tumour growth delay was determined for each individual tumour within the different groups as the time necessary to reach three times their initial volume at the start of the treatment. […]
Since strains E1 and N1 express stably-integrated NTR under the regulatory control of a strong promoter without inclusion of any antibiotic resistance gene, it was next determined whether administration of these clinically-applicable strains in combination with prodrug administration to tumour-bearing animals would result in anti-tumour efficacy. It was first evaluated whether inactivation of pyrE affected the tumour-colonizing capacity of systemically administered spores. […]

Data set [3] has as its system HinNTR, NTR from Haemophilus influenzae. To be noted: Theys et al., 2006, cited from earlier work.

Regarding `NC(=O)c1cc(N2CC2)c([N+](=O)[O-])cc1[N+](=O)[O-]` [CB1954, 5-(aziridin-1-yl)-2,4-dinitrobenzamide], the Kcat in data set [1] is reported as 4.04 (NADH) S^−1; in data set [3] (CB1954) it was 56.2 S^−1. Further, the “maximum concentration which can be safely achieved in patient serum” value in data set [2] (in vivo) was 6.3 µM. For the same compound, in data set [2] (safe doses), the “peak concentrations in patient sera” value is 1 to 10 µM. Further, the tumour growth delay result with HCT116 tumours is “did not result in any effect”. Also, the Michaelis constant (Km) in data set [3] (read-out: Km^CB1954) is 690 µM.
